The source of these data is ChEMBL document CHEMBL1250475, “Inhibition of monoamine oxidase by indole and benzofuran derivatives” (Eur J Med Chem, 2010).

Broadly, the pIC50 is the negative decadic logarithm of the IC50, by convention in mol/L. In general, pKi refers to the negative decadic logarithm of the Ki, by convention in mol/L.

The target in data set [1] is T1, Amine oxidase [flavin-containing] A (Homo sapiens, UniProt P21397).
T1 sequence (P21397 whole entry): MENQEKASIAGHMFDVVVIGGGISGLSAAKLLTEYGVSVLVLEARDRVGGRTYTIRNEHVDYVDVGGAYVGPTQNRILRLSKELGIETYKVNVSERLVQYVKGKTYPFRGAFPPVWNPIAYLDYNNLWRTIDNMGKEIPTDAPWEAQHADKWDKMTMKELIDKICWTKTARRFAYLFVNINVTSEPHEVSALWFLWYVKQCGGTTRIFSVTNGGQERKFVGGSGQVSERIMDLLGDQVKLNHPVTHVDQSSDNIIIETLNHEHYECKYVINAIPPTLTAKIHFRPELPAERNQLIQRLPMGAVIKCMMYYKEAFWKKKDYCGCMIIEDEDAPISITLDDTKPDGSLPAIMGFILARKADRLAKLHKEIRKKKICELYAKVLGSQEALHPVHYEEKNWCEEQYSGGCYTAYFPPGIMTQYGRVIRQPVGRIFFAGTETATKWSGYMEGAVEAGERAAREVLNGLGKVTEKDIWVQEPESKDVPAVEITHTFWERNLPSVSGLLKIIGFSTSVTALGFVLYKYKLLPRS
As to the kind of experiment: Inhibition of human recombinant MAOA expressed in baculovirus infected BTI insect cells after 20 mins by spectrofluorimetric analysis.

Data set [2] deals with T2, Amine oxidase [flavin-containing] B (Homo sapiens, UniProt P27338).
T2 sequence (P27338 whole entry): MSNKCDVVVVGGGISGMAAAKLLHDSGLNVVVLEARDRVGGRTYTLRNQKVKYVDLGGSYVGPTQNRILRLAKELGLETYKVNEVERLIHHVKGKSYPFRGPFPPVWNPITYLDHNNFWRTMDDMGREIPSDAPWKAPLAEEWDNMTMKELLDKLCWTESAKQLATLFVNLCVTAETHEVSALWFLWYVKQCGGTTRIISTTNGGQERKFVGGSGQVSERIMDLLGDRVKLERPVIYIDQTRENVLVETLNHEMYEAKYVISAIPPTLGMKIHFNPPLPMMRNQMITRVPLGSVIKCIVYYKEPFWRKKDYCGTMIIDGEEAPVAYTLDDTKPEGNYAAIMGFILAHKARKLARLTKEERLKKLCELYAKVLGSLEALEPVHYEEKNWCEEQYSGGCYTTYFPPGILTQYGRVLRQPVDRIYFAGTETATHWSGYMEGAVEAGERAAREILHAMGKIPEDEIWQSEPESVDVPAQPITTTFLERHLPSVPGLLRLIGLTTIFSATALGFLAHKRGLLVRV
Put plainly: Inhibition of human recombinant MAOB expressed in baculovirus infected BTI insect cells after 20 mins by spectrofluorimetric analysis.

For data set [3], the species on record is Homo sapiens. Put plainly: Selectivity ratio of Ki for human recombinant MAOA to Ki for human recombinant MAOB.
The target of data set [4] is T2, Amine oxidase [flavin-containing] B. Put plainly: Reversible inhibition of human recombinant MAOB expressed in baculovirus infected BTI insect cells at 2 times IC50 concentration preincubated for 60 mins measured after 15 mins. The conditions noted are these: 0.25 h.
For data set [5] the target is unchanged. Put plainly: Competitive inhibition of human recombinant MAOB expressed in baculovirus infected BTI insect cells at 0.015 to 0.06 uM by Lineweaver-Burke plot analysis.

Each structure is given as a SMILES string. pIC50, pKi: −log10 of the molar value.

Consider `Cc1cc2cc(NC(=O)c3ccc[n+](C)c3)ccc2[nH]1`, for which, in data set [1], the pIC50 is 4.68 and the negative logarithm of the Ki (pKi) is 5.26.

Consider `Cc1cc2cc(NC(=O)C3CCCCC3)ccc2[nH]1`, for which the pIC50 is 4.16 in data set [1] and 5.16 in data set [2]. The pKi in data set [1] is 4.74; in data set [2], 5.52. Moreover, the Selectivity ratio in data set [3] is 6.

`O=C1Cc2cc(OC(=O)c3ccccc3)ccc2O1`: in data set [1], the pIC50 was 4.94 and the pKi is 5.52. Further, in data set [2], the pIC50 was 5.05 and the pKi was 5.42. The Selectivity ratio in data set [3] was determined as 0.8.

For `Cc1cc2cc(NC(=O)/C=C/c3cccc(Cl)c3)ccc2[nH]1`, in data set [1], the pIC50 is 5.12 and the pKi is 5.69. In data set [2], the pIC50 is 5.01 and the pKi was 5.37. For the same compound, in data set [3], the Selectivity ratio is 0.5.

As for `Cc1cc2cc(NC(=O)c3cccc(S(=O)(=O)O)c3)ccc2[nH]1`, in data set [1], the negative-log IC50 (pIC50) was 3.59 and the pKi was 4.17. Further, in data set [2], the negative-log IC50 (pIC50) is 3.75 and the pKi was 4.12. Also, in data set [3], the Selectivity ratio stood at 0.9.

For `Cc1cc2cc(NC(=O)/C=C/c3ccccc3)ccc2[nH]1`, in data set [1], the pIC50 was 3.18 and the pKi was 3.76. Further, in data set [2], the pIC50 is 4.73 and the pKi was 5.10. The Selectivity ratio in data set [3] was found to be 22.

On to `O=C(/C=C/c1cccc(Cl)c1)Oc1ccc2c(c1)CC(=O)O2`, for which, in data set [1], the pIC50 is 5.41 and the pKi was 5.99. Moreover, in data set [2], the pIC50 was 6.36 and the pKi is 6.72. Moreover, in data set [3], the Selectivity ratio came out at 5.

Take `Cc1cc2cc(NC(=O)c3cccc(Cl)c3)ccc2[nH]1`: in data set [1], the negative-log IC50 (pIC50) was 4.51 and the pKi is 5.09. Also, in data set [2], the negative logarithm of the IC50 (pIC50) was 6.12 and the pKi is 6.48. In addition, the Selectivity ratio in data set [3] was 25.

As for `O=C1Cc2cc(OC(=O)c3cccc(Cl)c3)ccc2O1`, in data set [1], the negative logarithm of the IC50 (pIC50) was 5.12 and the pKi is 5.69. In data set [2], the pIC50 was 6.00 and the pKi was 6.37. Besides, the Selectivity ratio in data set [3] is 5. The “inhibition (INH)” value in data set [4] is given as “Active”.

`O=C(/C=C/c1ccccc1)Oc1ccc2c(c1)CC(=O)O2`: the results for the pIC50 in data set [1] and in data set [2] were 4.90 and 5.92, respectively. Further, the pKi in data set [1] was 5.48; in data set [2], 6.28. In data set [3], the Selectivity ratio was found to be 6.

Turning to `Cc1cc2cc(NC(=O)c3ccccc3)ccc2[nH]1`, in data set [1], the pIC50 is 3.82 and the pKi is 4.40. In data set [2], the pIC50 is 5.42 and the pKi was 5.78. Moreover, the Selectivity ratio in data set [3] was determined as 24.

Take `Cc1cc2cc(NC(=O)c3ccc(Cl)c(Cl)c3)ccc2[nH]1`: the pIC50 in data set [1] was 5.01; in data set [2], 7.22. Also, the pKi in data set [1] was 5.59; in data set [2] it was 7.52. For the same compound, in data set [3], the Selectivity ratio was 99. The “inhibition (INH)” value in data set [4] and in data set [5] was “Active” each time.
